Tested on: Metabolism protein genes
Assay: DNA chip mRNA expression in yeast, metabolism protein genes (Table 7)
Assay type: cell-based, Saccharomyces cerevisiae S288C
Outline: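 Expression change after 2 h toxicant exposure (growth-inhibiting, sub-lethal) of log-phase S. cerevisiae S288C at 25° C. Oligo-dT-purified mRNA was labeled with Cy3-dUTP or Cy5-dUTP and hybridized >12 h at 65° C. to a genome-wide chip; ratio of scanned fluorescence to control.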

COc1cc(CNC(=O)CCCCC=CC(C)C)ccc1O [(12), 8-methyl-N-vanillyl-6-nonenamide]
The level of expressed mRNA in the presence of chemical substance/The level of expressed mRNA in the absence of chemical substance (yeast gene YAL012W): 1.1 | The level of expressed mRNA in the presence of chemical substance/The level of expressed mRNA in the absence of chemical substance (yeast gene YAL038W): 1.2 | level of expressed mRNA in the presence/in the absence of chemical substance (yeast gene YBR003W): 0.8 | level of expressed mRNA in the presence/in the absence of chemical substance (yeast gene YBR011C): 1.1 | level of expressed mRNA in the presence/in the absence of chemical substance (yeast gene YBR020W): 0.8 | The level of expressed mRNA in the presence of chemical substance/The level of expressed mRNA in the absence of chemical substance (yeast gene YBR023C): 0.8 | The level of expressed mRNA in the presence of chemical substance/The level of expressed mRNA in the absence of chemical substance (yeast gene YBR029C): 1.3 | The level of expressed mRNA in the presence of chemical substance/The level of expressed mRNA in the absence of chemical substance (yeast gene YBR183W): 1.2 | The level of expressed mRNA in the presence of chemical substance/The level of expressed mRNA in the absence of chemical substance (yeast gene YBR222C): 0.9 | The level of expressed mRNA in the presence of chemical substance/The level of expressed mRNA in the absence of chemical substance (yeast gene YBR256C): 1.7 | The level of expressed mRNA in the presence of chemical substance/The level of expressed mRNA in the absence of chemical substance (yeast gene YCL009C): 1.7 | The level of expressed mRNA in the presence of chemical substance/The level of expressed mRNA in the absence of chemical substance (yeast gene YCL018W): 1.6 | The level of expressed mRNA in the presence of chemical substance/The level of expressed mRNA in the absence of chemical substance (yeast gene YCL064C): 0.7 | level of expressed mRNA in the presence/in the absence of chemical substance (yeast gene YCR010C): 0.8 | level of expressed mRNA in the presence/in the absence of chemical substance (yeast gene YCR034W): 0.5 | The level of expressed mRNA in the presence of chemical substance/The level of expressed mRNA in the absence of chemical substance (yeast gene YCR048W): 0.9 | The level of expressed mRNA in the presence of chemical substance/The level of expressed mRNA in the absence of chemical substance (yeast gene YCR098C): 1.3 | The level of expressed mRNA in the presence of chemical substance/The level of expressed mRNA in the absence of chemical substance (yeast gene YDL174C): 2.8 | The level of expressed mRNA in the presence of chemical substance/The level of expressed mRNA in the absence of chemical substance (yeast gene YDR019C): 0.7 | level of expressed mRNA in the presence/in the absence of chemical substance (yeast gene YDR050C): 1.4 | level of expressed mRNA in the presence/in the absence of chemical substance (yeast gene YDR073W): 0.8 | level of expressed mRNA in the presence/in the absence of chemical substance (yeast gene YDR123C): 0.5 | level of expressed mRNA in the presence/in the absence of chemical substance (yeast gene YDR178W): 1.3 | level of expressed mRNA in the presence/in the absence of chemical substance (yeast gene YDR277C): 0.9 | level of expressed mRNA in the presence/in the absence of chemical substance (yeast gene YDR284C): 0.9 | level of expressed mRNA in the presence/in the absence of chemical substance (yeast gene YDR345C): 1.4 | The level of expressed mRNA in the presence of chemical substance/The level of expressed mRNA in the absence of chemical substance (yeast gene YDR380W): 0.4 | level of expressed mRNA in the presence/in the absence of chemical substance (yeast gene YDR400W): 0.4 | level of expressed mRNA in the presence/in the absence of chemical substance (yeast gene YDR408C): 0.6 | level of expressed mRNA in the presence/in the absence of chemical substance (yeast gene YDR483W): 0.8 | The level of expressed mRNA in the presence of chemical substance/The level of expressed mRNA in the absence of chemical substance (yeast gene YDR497C): 0.9 | The level of expressed mRNA in the presence of chemical substance/The level of expressed mRNA in the absence of chemical substance (yeast gene YDR502C): 1.3 | The level of expressed mRNA in the presence of chemical substance/The level of expressed mRNA in the absence of chemical substance (yeast gene YDR516C): 1.1 | level of expressed mRNA in the presence/in the absence of chemical substance (yeast gene YEL063C): 1.1 | level of expressed mRNA in the presence/in the absence of chemical substance (yeast gene YER015W): 0.9 | The level of expressed mRNA in the presence of chemical substance/The level of expressed mRNA in the absence of chemical substance (yeast gene YER026C): 1.7 | The level of expressed mRNA in the presence of chemical substance/The level of expressed mRNA in the absence of chemical substance (yeast gene YER053C): 1.7 | The level of expressed mRNA in the presence of chemical substance/The level of expressed mRNA in the absence of chemical substance (yeast gene YER069W): 0.8 | level of expressed mRNA in the presence/in the absence of chemical substance (yeast gene YER081W): 1.0 | The level of expressed mRNA in the presence of chemical substance/The level of expressed mRNA in the absence of chemical substance (yeast gene YER096W): 0.9 | level of expressed mRNA in the presence/in the absence of chemical substance (yeast gene YER120W): 1.3 | The level of expressed mRNA in the presence of chemical substance/The level of expressed mRNA in the absence of chemical substance (yeast gene YER178W): 1.3 | level of expressed mRNA in the presence/in the absence of chemical substance (yeast gene YFL011W): 0.9 | The level of expressed mRNA in the presence of chemical substance/The level of expressed mRNA in the absence of chemical substance (yeast gene YFL014W): 4.3 | The level of expressed mRNA in the presence of chemical substance/The level of expressed mRNA in the absence of chemical substance (yeast gene YFL030W): 1.2 | The level of expressed mRNA in the presence of chemical substance/The level of expressed mRNA in the absence of chemical substance (yeast gene YFL031W): 1.0 | The level of expressed mRNA in the presence of chemical substance/The level of expressed mRNA in the absence of chemical substance (yeast gene YFL056C): 1.0 | The level of expressed mRNA in the presence of chemical substance/The level of expressed mRNA in the absence of chemical substance (yeast gene YFL057C): 1.0 | The level of expressed mRNA in the presence of chemical substance/The level of expressed mRNA in the absence of chemical substance (yeast gene YFR047C): 1.7 | level of expressed mRNA in the presence/in the absence of chemical substance (yeast gene YGL012W): 0.6 | The level of expressed mRNA in the presence of chemical substance/The level of expressed mRNA in the absence of chemical substance (yeast gene YGL022W): 0.7 | level of expressed mRNA in the presence/in the absence of chemical substance (yeast gene YGL115W): 0.9 | The level of expressed mRNA in the presence of chemical substance/The level of expressed mRNA in the absence of chemical substance (yeast gene YGL126W): 0.6 | level of expressed mRNA in the presence/in the absence of chemical substance (yeast gene YGL205W): 1.1 | The level of expressed mRNA in the presence of chemical substance/The level of expressed mRNA in the absence of chemical substance (yeast gene YGL209W): 1.3 | The level of expressed mRNA in the presence of chemical substance/The level of expressed mRNA in the absence of chemical substance (yeast gene YGL248W): 0.8 | The level of expressed mRNA in the presence of chemical substance/The level of expressed mRNA in the absence of chemical substance (yeast gene YGR037C): 1.5 | The level of expressed mRNA in the presence of chemical substance/The level of expressed mRNA in the absence of chemical substance (yeast gene YGR055W): 0.9 | level of expressed mRNA in the presence/in the absence of chemical substance (yeast gene YGR096W): 0.8 | level of expressed mRNA in the presence/in the absence of chemical substance (yeast gene YGR191W): 0.7 | The level of expressed mRNA in the presence of chemical substance/The level of expressed mRNA in the absence of chemical substance (yeast gene YGR194C): 0.8 | level of expressed mRNA in the presence/in the absence of chemical substance (yeast gene YGR204W): 1.0 | The level of expressed mRNA in the presence of chemical substance/The level of expressed mRNA in the absence of chemical substance (yeast gene YGR244C): 1.9 | The level of expressed mRNA in the presence of chemical substance/The level of expressed mRNA in the absence of chemical substance (yeast gene YGR256W): 1.5 | The level of expressed mRNA in the presence of chemical substance/The level of expressed mRNA in the absence of chemical substance (yeast gene YGR282C): 1.3 | level of expressed mRNA in the presence/in the absence of chemical substance (yeast gene YGR288W): 0.9 | level of expressed mRNA in the presence/in the absence of chemical substance (yeast gene YHR025W): 0.9 | The level of expressed mRNA in the presence of chemical substance/The level of expressed mRNA in the absence of chemical substance (yeast gene YHR111W): 0.9 | level of expressed mRNA in the presence/in the absence of chemical substance (yeast gene YHR123W): 0.7 | The level of expressed mRNA in the presence of chemical substance/The level of expressed mRNA in the absence of chemical substance (yeast gene YHR137W): 0.6 | The level of expressed mRNA in the presence of chemical substance/The level of expressed mRNA in the absence of chemical substance (yeast gene YHR174W): 1.5 | The level of expressed mRNA in the presence of chemical substance/The level of expressed mRNA in the absence of chemical substance (yeast gene YHR176W): 1.2 | level of expressed mRNA in the presence/in the absence of chemical substance (yeast gene YHR210C): 0.5 | level of expressed mRNA in the presence/in the absence of chemical substance (yeast gene YIL006W): 0.9 | The level of expressed mRNA in the presence of chemical substance/The level of expressed mRNA in the absence of chemical substance (yeast gene YIL045W): 1.5 | The level of expressed mRNA in the presence of chemical substance/The level of expressed mRNA in the absence of chemical substance (yeast gene YIL107C): 1.1 | The level of expressed mRNA in the presence of chemical substance/The level of expressed mRNA in the absence of chemical substance (yeast gene YIL154C): 1.1 | The level of expressed mRNA in the presence of chemical substance/The level of expressed mRNA in the absence of chemical substance (yeast gene YIL155C): 1.4 | The level of expressed mRNA in the presence of chemical substance/The level of expressed mRNA in the absence of chemical substance (yeast gene YIL167W): 0.7 | The level of expressed mRNA in the presence of chemical substance/The level of expressed mRNA in the absence of chemical substance (yeast gene YIR034C): 1.4 | The level of expressed mRNA in the presence of chemical substance/The level of expressed mRNA in the absence of chemical substance (yeast gene YIR036C): 1.2 | The level of expressed mRNA in the presence of chemical substance/The level of expressed mRNA in the absence of chemical substance (yeast gene YJL031C): 1.3 | The level of expressed mRNA in the presence of chemical substance/The level of expressed mRNA in the absence of chemical substance (yeast gene YJL068C): 1.7 | The level of expressed mRNA in the presence of chemical substance/The level of expressed mRNA in the absence of chemical substance (yeast gene YJL088W): 0.7 | The level of expressed mRNA in the presence of chemical substance/The level of expressed mRNA in the absence of chemical substance (yeast gene YJL099W): 1.0 | level of expressed mRNA in the presence/in the absence of chemical substance (yeast gene YJL121C): 0.6 | level of expressed mRNA in the presence/in the absence of chemical substance (yeast gene YJL167W): 1.3 | The level of expressed mRNA in the presence of chemical substance/The level of expressed mRNA in the absence of chemical substance (yeast gene YJL172W): 1.1 | level of expressed mRNA in the presence/in the absence of chemical substance (yeast gene YJL216C): 1.0 | The level of expressed mRNA in the presence of chemical substance/The level of expressed mRNA in the absence of chemical substance (yeast gene YJL219W): 1.1 | level of expressed mRNA in the presence/in the absence of chemical substance (yeast gene YJR077C): 1.0 | The level of expressed mRNA in the presence of chemical substance/The level of expressed mRNA in the absence of chemical substance (yeast gene YJR137C): 1.4

Reference: US8192962B2, “Processes for detecting toxic substances” (Daikin Industries, Ltd., priority 2001, dated 2012)
